Reference: PMC9979163, “Discovery and functional characterization of N-(thiazol-2-yl)-benzamide analogs as the first class of selective antagonists of the Zinc-Activated Channel (ZAC)” (Biochemical pharmacology, 2021)

Key:
m5-HT3AR = molecular target: T1, m5-HT3AR (Mus musculus, UniProt P23979); test: TEVC selectivity, m5-HT3AR in oocytes; type: cell-based; details: 30 μM, 30 s preapplication, 2 μM 5-HT (EC20–EC40)
T1 sequence (P23979 24-489): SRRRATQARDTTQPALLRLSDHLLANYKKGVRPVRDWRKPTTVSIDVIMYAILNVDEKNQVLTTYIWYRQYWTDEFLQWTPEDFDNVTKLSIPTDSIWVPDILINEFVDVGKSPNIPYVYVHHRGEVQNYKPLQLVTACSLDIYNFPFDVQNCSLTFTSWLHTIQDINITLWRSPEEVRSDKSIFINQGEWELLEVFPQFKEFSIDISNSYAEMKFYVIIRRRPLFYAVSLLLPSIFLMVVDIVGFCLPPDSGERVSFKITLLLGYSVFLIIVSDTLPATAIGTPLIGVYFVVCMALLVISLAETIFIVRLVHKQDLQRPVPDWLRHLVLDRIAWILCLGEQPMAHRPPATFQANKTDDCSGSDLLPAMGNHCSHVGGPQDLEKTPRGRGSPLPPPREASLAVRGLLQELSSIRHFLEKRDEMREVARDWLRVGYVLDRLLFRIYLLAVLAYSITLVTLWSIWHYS
Procedure: (§1) The cDNAs for the various WT and chimeric CLR subunits were linearized and subsequently transcribed and capped mMessage mMachine T7 RNA transcription kit (Ambion, Waltham, MA). […]
(§2) On the day of experiment, all compound dilutions were prepared in a saline solution [115 mM NaCl, 2.5 mM KCl, 10 mM MOPS (pH 7.5), 1.8 mM CaCl2, 0.1 mM MgCl2] and pH adjusted to 7.5 (if needed). […] Currents were recorded using pCLAMP 10 (Molecular Devices, Sunnyvale, CA). […]
(§3) In all recordings, the compounds or compound combinations were applied in the bath until the peak current decayed to a steady state (up to 30 sec at the most). […] The functional properties of the modulators at the CLRs were determined by pre-application of the modulator to the perfusate 30 sec and followed by co-application of the modulator and the agonist to the perfusate. […]
(§4) Data analysis of the results from the TEVC recordings were performed using Clampfit software version 10.5 (Molecular Devices, Crawley, UK) and GraphPad Prism version 7.0c (GraphPad Software, Inc. La Jolla, CA). […] I-V relationships were analyzed by fitting the curves with a third order polynomial model. […]

ZAC/hα1-Gly = test: TEVC, chimeric ZAC/hα1-Gly receptor in oocytes; type: cell-based, human; details: 30 μM, EC20–EC40 Zn2+
Procedure: as §1, §2, §3, §4

hEAAT3 = molecular target: T2, hEAAT3 (Homo sapiens, UniProt P43005); test: FMP assay at hEAAT3-HEK293 cells (glutamate-induced response); type: cell-based; details: concentrations up to 100 μM, data not shown
T2 construct: expressed in transfected cells
T2 sequence (P43005 1-524): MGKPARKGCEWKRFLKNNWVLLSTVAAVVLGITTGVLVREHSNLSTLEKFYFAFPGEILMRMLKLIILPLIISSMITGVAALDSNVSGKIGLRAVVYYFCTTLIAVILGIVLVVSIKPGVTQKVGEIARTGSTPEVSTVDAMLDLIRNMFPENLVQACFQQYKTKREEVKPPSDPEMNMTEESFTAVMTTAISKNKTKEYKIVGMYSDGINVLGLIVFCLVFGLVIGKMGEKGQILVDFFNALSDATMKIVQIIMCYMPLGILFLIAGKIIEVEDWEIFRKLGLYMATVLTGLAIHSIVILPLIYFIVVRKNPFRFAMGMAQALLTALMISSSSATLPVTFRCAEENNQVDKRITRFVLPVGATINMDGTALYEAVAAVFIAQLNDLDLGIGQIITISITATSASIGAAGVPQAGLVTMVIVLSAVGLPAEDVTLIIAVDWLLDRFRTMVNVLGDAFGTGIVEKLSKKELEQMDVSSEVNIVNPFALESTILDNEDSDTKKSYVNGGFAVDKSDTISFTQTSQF

rα3β4-nAChR = molecular target: T3, rα3β4-nAChR (Rattus norvegicus, UniProt P04757+P12392); test: FMP assay at rα3β4-nAChR-HEK293 cells ((S)-nicotine-induced response); type: cell-based; details: concentrations up to 100 μM, data not shown
T3 construct: expressed in transfected cells
T3 sequence (P04757 26-499): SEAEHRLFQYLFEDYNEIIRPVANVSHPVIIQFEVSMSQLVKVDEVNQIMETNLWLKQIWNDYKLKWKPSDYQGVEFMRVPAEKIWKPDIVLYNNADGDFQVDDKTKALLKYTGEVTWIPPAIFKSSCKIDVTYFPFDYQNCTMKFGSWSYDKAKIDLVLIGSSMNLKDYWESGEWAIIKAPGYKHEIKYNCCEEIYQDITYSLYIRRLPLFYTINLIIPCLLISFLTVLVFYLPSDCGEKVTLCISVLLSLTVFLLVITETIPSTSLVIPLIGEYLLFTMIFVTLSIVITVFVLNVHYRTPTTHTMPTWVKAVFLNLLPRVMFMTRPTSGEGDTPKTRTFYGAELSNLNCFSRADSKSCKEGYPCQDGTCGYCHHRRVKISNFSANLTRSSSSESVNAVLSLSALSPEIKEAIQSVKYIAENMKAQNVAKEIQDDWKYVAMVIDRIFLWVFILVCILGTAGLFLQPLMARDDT
T3 sequence (P12392 22-495 limits assumed): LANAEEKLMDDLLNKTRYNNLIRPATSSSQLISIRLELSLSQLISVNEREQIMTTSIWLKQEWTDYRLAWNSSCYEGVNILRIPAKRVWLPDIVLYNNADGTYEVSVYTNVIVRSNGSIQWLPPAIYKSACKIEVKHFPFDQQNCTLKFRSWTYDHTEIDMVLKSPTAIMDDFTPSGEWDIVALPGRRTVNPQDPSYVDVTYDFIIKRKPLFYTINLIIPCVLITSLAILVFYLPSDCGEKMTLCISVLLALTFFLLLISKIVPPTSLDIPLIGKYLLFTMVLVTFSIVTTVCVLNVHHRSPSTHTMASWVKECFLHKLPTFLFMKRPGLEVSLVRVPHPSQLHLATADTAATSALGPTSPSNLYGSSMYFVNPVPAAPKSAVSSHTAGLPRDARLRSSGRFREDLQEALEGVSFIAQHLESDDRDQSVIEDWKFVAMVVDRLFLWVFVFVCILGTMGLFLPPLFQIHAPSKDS

| Agonist, antagonist or PAM activity (m5-HT3AR) | Modulation of Zn2+-induced response (ZAC/hα1-Gly) | Effect on glutamate-induced response (hEAAT3) | Effect on (S)-nicotine-induced response (rα3β4-nAChR) | Structure (SMILES) |
| --- | --- | --- | --- | --- |
| did not display significant activity | negligible effect | – | – | CC(C)(C)c1csc(NC(=O)c2cccc(F)c2)n1 [5a, N-(4-(tert-butyl)thiazol-2-yl)-3-fluorobenzamide] |
| – | – | did not affect | did not affect | COC(=O)c1sc(NC(=O)c2cc(Br)ccc2Cl)nc1C [compound 1, 2-(5-bromo-2-chlorobenzamido)-4-methylthiazole-5-methyl ester] |
